Measurements as given in the supplement of paper PMC11061612.

Assays:
Experiment in all cases: Bliss excess, mean over the matrix (fraction); higher = more synergy
[1] = system: 8505C (Thyroid Gland Carcinoma)
Method in brief: (§1)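 Cell lines in DMEM/F12 or RPMI with 10% FBS were plated in 1536-well plates, held 24 hours at 37°C, 5% CO2, then given two-drug dose matrices for 72 hours (DMSO typically 0.2%). Viability was read by CellTiter-Glo 2.0 luminescence and scaled as inhibition from 0 (vehicle wells) to 1 (blank wells). Combination Emax is the second-highest inhibition in the matrix; Bliss excess is observed combination effect minus expected EA + EB − EA·EB, EA and EB being single-agent effects.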

[2] = system: COR-L279 (Small Cell Lung Carcinoma)
Method in brief: as §1

[3] = system: CW-2 (Colorectal Carcinoma)
Method in brief: as §1

[4] = system: DMS-114 (Small Cell Lung Carcinoma)
Method in brief: as §1

[5] = system: ESO51 (Esophageal Adenocarcinoma)
Method in brief: as §1

[6] = system: HCC1419 (Breast Carcinoma)
Method in brief: as §1

[7] = system: KMS-12-BM (Plasma Cell Myeloma)
Method in brief: as §1

[8] = system: KU812 (Chronic Myelogenous Leukemia)
Method in brief: as §1

NCI-H2731 (Mesothelioma) = system: NCI-H2731 (Mesothelioma)
Method in brief: as §1

[9] = system: NCI-H3122 (Lung Adenocarcinoma)
Method in brief: as §1

[10] = system: NCI-H520 (Squamous Cell Lung Carcinoma)
Method in brief: as §1

[11] = system: NCI-H661 (Non-Small Cell Lung Carcinoma)
Method in brief: as §1

RD (Rhabdomyosarcoma) = system: RD (Rhabdomyosarcoma)
Method in brief: as §1

[12] = system: RPMI-8226 (Plasma Cell Myeloma)
Method in brief: as §1

[13] = system: SK-GT-2 (Gastric Carcinoma)
Method in brief: as §1

[14] = system: SK-GT-4 (Esophageal Adenocarcinoma)
Method in brief: as §1

[15] = system: SNU-398 (Hepatocellular Carcinoma)
Method in brief: as §1

[16] = system: SU-DHL-5 (B-Cell Non-Hodgkin's Lymphoma)
Method in brief: as §1

[17] = system: T-T (Esophageal Squamous Cell Carcinoma)
Method in brief: as §1

[18] = system: VMRC-RCZ (Kidney Carcinoma)
Method in brief: as §1

| SMILES | Bliss excess [1] | Bliss excess [2] | Bliss excess [3] | Bliss excess [4] | Bliss excess [5] | Bliss excess [6] | Bliss excess [7] | Bliss excess [8] | Bliss excess (NCI-H2731 (Mesothelioma)) | Bliss excess [9] | Bliss excess [10] | Bliss excess [11] | Bliss excess (RD (Rhabdomyosarcoma)) | Bliss excess [12] | Bliss excess [13] | Bliss excess [14] | Bliss excess [15] | Bliss excess [16] | Bliss excess [17] | Bliss excess [18] |
| --- | --- | --- | --- | --- | --- | --- | --- | --- | --- | --- | --- | --- | --- | --- | --- | --- | --- | --- | --- | --- |
| Cc1cc2ncnn2cc1Nc1ncc2c(n1)n(C1CCOCC1)c(=O)n2C [AZD7648] + O=C(c1cc(Cc2n[nH]c(=O)c3ccccc23)ccc1F)N1CCN(C(=O)C2CC2)CC1 [Olaparib] (first compound max 10 µM, 7x7, partner max 10 µM) | -0.0202 | -0.0256 | -0.0201 | -0.0092 | -0.0056 | -0.066 | 0.027 | -0.0425 | -0.069 | -0.0505 | -0.0742 | -0.0373 | -0.0508 | -0.038 | -0.0297 | -0.0258 | -0.0381 | 0.0091 | -0.0642 | -0.0546 |
| COc1cccc(OCCCN)c1-c1cc(Nc2cnc(C#N)cn2)n[nH]1 [Prexasertib] + CCc1c2c(nc3ccc(O)cc13)-c1cc3c(c(=O)n1C2)COC(=O)[C@]3(O)CC [SN-38] (first compound max 1 µM, 7x7, partner max 0.3 µM) | -0.0559 | -0.0221 | -0.0035 | 0.0663 | -0.0376 | -0.0098 | 0.0381 | -0.124 | 0.0108 | -0.002 | -0.0483 | 0.0419 | 0.065 | 0.0686 | 0.034 | -0.0304 | 0.0441 | 0.0023 | 0.12 | 0.0578 |
| Cc1c2c(nn1C)CSCc1cc(n(C)n1)CSc1cc(c3ccccc3c1)OCCCc1c(C(=O)O)n(C)c3c-2c(Cl)ccc13 [AZD5991] + C[C@@H](Nc1cc(F)cc(F)c1)c1cc(C(=O)N(C)C)cc2c(=O)cc(N3CCOCC3)oc12 [AZD8186] (first compound max 1 µM, 7x7, partner max 3 µM) | -0.0043 | -0.0011 | 0.0051 | -0.0338 | -0.0134 | -0.0038 | 0.0019 | -0.0554 | -0.0626 | -0.0639 | -0.0474 | 0.0181 | 0.0195 | -0.0219 | 0.015 | -0.0185 | -0.0004 | 0.0109 | 0.0265 | 0.0141 |
| C[C@@H](c1ccc2nccn2c1)n1nnc2ncc(-c3cnn(C)c3)nc21 [Savolitinib] + Cc1c2c(nn1C)CSCc1cc(n(C)n1)CSc1cc(c3ccccc3c1)OCCCc1c(C(=O)O)n(C)c3c-2c(Cl)ccc13 [AZD5991] (first compound max 1 µM, 7x7, partner max 1 µM) | -0.0324 | 0.0219 | -0.0263 | -0.0755 | -0.0013 | 0.0448 | -0.0168 | 0.0064 | -0.0586 | -0.0562 | -0.0539 | -0.0666 | -0.0177 | -0.0125 | -0.0274 | -0.0519 | -0.0697 | -0.0269 | -0.0291 | -0.0297 |
| COc1cccc2c1C(=O)c1c(O)c3c(c(O)c1C2=O)C[C@@](O)(C(=O)CO)C[C@@H]3O[C@H]1C[C@H](N)[C@H](O)[C@H](C)O1 [Doxorubicin] + Cc1cc2ncnn2cc1Nc1ncc2c(n1)n(C1CCOCC1)c(=O)n2C [AZD7648] (first compound max 1 µM, 7x7, partner max 10 µM) | 0.0859 | 0.0715 | -0.0002 | 0.0288 | 0.0291 | -0.128 | 0.0946 | 0.0256 | 0.0506 | 0.031 | 0.0158 | 0.0465 | 0.0368 | 0.124 | -0.0051 | -0.0081 | 0.056 | 0.111 | 0.0318 | -0.024 |
| CN(C)CCCOc1ccc(-c2ccc3ncc4c(c3c2)n(C2CCOCC2)c(=O)n4C)cn1 [AZD0156] + CCN(CCO)CCCOc1ccc2c(Nc3cc(CC(=O)Nc4cccc(F)c4)[nH]n3)ncnc2c1 [AZD2811] (first compound max 1 µM, 7x7, partner max 1 µM) | -0.0257 | 0.0256 | -0.0163 | -0.0209 | -0.0147 | -0.0427 | 0.13 | -0.0158 | -0.0279 | -0.0048 | 0.0012 | -0.0304 | -0.0374 | 0.0092 | -0.0156 | -0.0603 | -0.0184 | -0.0542 | -0.0262 | -0.0451 |
| COc1cccc(OCCCN)c1-c1cc(Nc2cnc(C#N)cn2)n[nH]1 [Prexasertib] + CN(C)CCCOc1ccc(-c2ccc3ncc4c(c3c2)n(C2CCOCC2)c(=O)n4C)cn1 [AZD0156] (first compound max 1 µM, 7x7, partner max 1 µM) | -0.0089 | 0.0053 | 0.0498 | 0.0778 | -0.0414 | -0.0285 | 0.0343 | -0.061 | -0.012 | 0.0204 | -0.0486 | -0.0451 | -0.0008 | -0.0048 | -0.0519 | -0.0116 | 0.0501 | -0.0089 | 0.0061 | -0.0279 |
| Cc1c2c(nn1C)CSCc1cc(n(C)n1)CSc1cc(c3ccccc3c1)OCCCc1c(C(=O)O)n(C)c3c-2c(Cl)ccc13 [AZD5991] + CCN(CCO)CCCOc1ccc2c(Nc3cc(CC(=O)Nc4cccc(F)c4)[nH]n3)ncnc2c1 [AZD2811] (first compound max 1 µM, 7x7, partner max 1 µM) | 0.119 | 0.0162 | 0.0059 | 0.0287 | 0.0031 | -0.0638 | 0.0257 | -0.0519 | -0.0023 | 0.0531 | 0.0632 | 0.0328 | 0.0268 | 0.0744 | 0.039 | -0.0303 | 0.0359 | -0.06 | 0.0614 | 0.016 |
| COc1nnc2ccc(N3CCC(c4ccc(OCCN5CCN(C)C(=O)[C@H]5C)cc4)CC3)nn12 [AZD5153] + Cn1cnc2c(F)c(Nc3ccc(Br)cc3Cl)c(C(=O)NOCCO)cc21 [Selumetinib] (first compound max 1 µM, 7x7, partner max 10 µM) | 0.0049 | -0.0778 | 0.0215 | 0.0443 | -0.0408 | 0.0238 | -0.0114 | 0.0272 | -0.0445 | -0.0818 | 0.0319 | -0.0027 | 0.0333 | 0.0745 | 0.0006 | -0.0158 | -0.0298 | 0.0756 | 0.0702 | -0.0486 |
| CN(CCO)CC[C@H](CSc1ccccc1)Nc1ccc(S(=O)(=O)NC(=O)c2ccc(N3CCC([C@@H](O)c4ccccc4-c4ccc(Cl)cc4)CC3)cc2)cc1S(=O)(=O)C(F)(F)F [AZD4320] + CN(C)CCCOc1ccc(-c2ccc3ncc4c(c3c2)n(C2CCOCC2)c(=O)n4C)cn1 [AZD0156] (first compound max 1 µM, 7x7, partner max 1 µM) | -0.0014 | 0.0041 | -0.007 | -0.0466 | -0.0095 | -0.0645 | 0.0211 | -0.0086 | -0.0485 | -0.0486 | -0.0185 | -0.0232 | -0.0172 | 0.0137 | 0.0006 | -0.067 | -0.0009 | -0.066 | -0.0047 | -0.058 |
| COc1nnc2ccc(N3CCC(c4ccc(OCCN5CCN(C)C(=O)[C@H]5C)cc4)CC3)nn12 [AZD5153] + Cc1c2c(nn1C)CSCc1cc(n(C)n1)CSc1cc(c3ccccc3c1)OCCCc1c(C(=O)O)n(C)c3c-2c(Cl)ccc13 [AZD5991] (first compound max 1 µM, 7x7, partner max 1 µM) | -0.0393 | 0.08 | -0.0629 | 0.029 | -0.0093 | -0.0411 | -0.0116 | -0.0007 | -0.0327 | -0.0279 | -0.0174 | 0.031 | 0.0267 | -0.0253 | 0.0224 | -0.0304 | -0.0431 | -0.0264 | -0.0157 | -0.022 |
| CC(=O)Nc1cccc(-n2c(=O)n(C3CC3)c(=O)c3c(Nc4ccc(I)cc4F)n(C)c(=O)c(C)c32)c1 [Trametinib] + Cc1nc(-c2cn3c(n2)-c2ccc(-c4cnn(C(C)(C)C(N)=O)c4)cc2OCC3)n(C(C)C)n1 [Taselisib] (first compound max 1 µM, 7x7, partner max 10 µM) | 0.142 | -0.0486 | 0.122 | 0.079 | 0.0533 | 0.032 | 0.103 | 0.111 | 0.0312 | 0.116 | 0.0256 | 0.115 | 0.261 | 0.25 | 0.134 | 0.103 | 0.0676 | 0.0452 | 0.245 | 0.0186 |
| C[C@@H](c1ccc2nccn2c1)n1nnc2ncc(-c3cnn(C)c3)nc21 [Savolitinib] + CN(CC[C@H](CSC1=CC=CC=C1)NC2=C(C=C(C=C2)S(=O)(=O)NC(=O)C3=CC=C(C=C3)N4CCC(CC4)[C@H](C5=CC=CC=C5C6=CC=C(C=C6)Cl)O)S(=O)(=O)C(F)(F)F)CCO [AZD4320] (first compound max 1 µM, 7x7, partner max 1 µM) | -0.0719 | – | – | – | -0.0038 | -0.0736 | -0.0005 | – | – | – | – | -0.0669 | -0.0348 | -0.0379 | -0.0294 | – | -0.0665 | -0.0451 | – | – |
| CN(CCO)CC[C@H](CSc1ccccc1)Nc1ccc(S(=O)(=O)NC(=O)c2ccc(N3CCC([C@@H](O)c4ccccc4-c4ccc(Cl)cc4)CC3)cc2)cc1S(=O)(=O)C(F)(F)F [AZD4320] + Cc1cc2ncnn2cc1Nc1ncc2c(n1)n(C1CCOCC1)c(=O)n2C [AZD7648] (first compound max 1 µM, 7x7, partner max 10 µM) | -0.0315 | -0.0057 | -0.006 | -0.0514 | -0.0168 | -0.133 | 0.0317 | – | -0.0424 | -0.0676 | -0.0691 | -0.0289 | -0.0189 | 0.0536 | -0.0034 | -0.0413 | -0.0291 | -0.0099 | -0.0069 | -0.058 |
